Legend:
LP-1 cells = assay: Biological Assay C: antiproliferative activity on LP-1 cells (CellTiter-Glo); type: cell-based; settings: Homo sapiens, 72 hr treatment
Description: (§1) Determination of Antiproliferative Activity on LP-1, L-363 and JJN-3 Cells
(§2) All compounds tested were dissolved in DMSO and further dilutions were made in culture medium. Final DMSO concentration was 0.3% (v/v) in cell proliferation assays. Viability was assessed using CellTiter-Glo cell viability assay kit (Promega). The human LP-1, L-363 and JJN-3 cells (DSMZ) were cultured in RPMI 1640 medium supplemented with 2 mM L-glutamine, and 10% fetal calf serum (PAA). Cells were routinely kept as suspension cells at 37° C. in a humidified 5% CO2 atmosphere. Cells were passaged at a seeding density of 0.2×10^6/ml twice a week. Cells were seeded in black tissue culture treated 96-well plates (Perkin Elmer). Densities used for plating ranged from 2,000 to 6,000 cells per well in a total volume of 75 μl medium. After twenty four hours, drugs and/or solvents were added (25 μl) to a final volume of 100 μl. Following 72 hr of treatment plates were removed from the incubator and allowed to equilibrate to room temperature for approx 10 min. 100 μl CellTiter-Glo reagent was added to each well that was then covered (Perkin Elmer Topseal) and shaken on plate shaker for 10 min. Luminescence was measured on a HTS Topcount (Perkin Elmer). Within an experiment, the results for each treatment were the mean of 2 replicate wells. For initial screening purposes, compounds were tested using a 9 point dilution curve (serial 1:3 dilutions). For each experiment, controls (containing no drug) and a blank incubation (containing cells read at the time of compound addition) were run in parallel. The blank value was subtracted from all control and sample values. For each sample, the mean value for cell growth (in relative light units) was expressed as a percentage of the mean value for cell growth of the control.

[1] = target: T1, Recombinant Human NF-kappaB-Inducing Kinase (NIK/MAP3K14) (Homo sapiens, UniProt Q99558); assay: Biological Assay A: inhibition of recombinant human NIK/MAP3K14 activity (MSD, MBP substrate); settings: 25 μM ATP, 10 nM NIK/MAP3K14, 1 h at 25° C.; averaged over all batches; read-out: Biochemical (MSD MBP) IC50
Description: Inhibition of Recombinant Human NF-kappaB-Inducing Kinase (NIKIMAP3K14) Activity
Assay buffer was 50 mM Tris pH 7.5 containing 1 mM ethylene glycol tetraacetic acid (EGTA), 1 mM dithiothreitol (DTT), 0.1 mM Na3VO4, 5 mM MgCl2, 0.01% Tween® 20. Assays were carried out in 384 well Mesoscale high binding plates which had been coated with myelin basic protein (MBP) and blocked with bovine serum albumin to prevent non-specific protein binding. All compounds tested were dissolved in dimethyl sulfoxide (DMSO) and further dilutions were made in assay buffer. Final DMSO concentration was 1% (v/v) in assays. Incubations consisted of compound (1% DMSO in control and blank wells), 25 μM Adenosine-5′-triphosphate (ATP), and 10 nM NIK/MAP3K14 substituting enzyme with buffer in the blank wells. Incubations were carried out for 1 h at 25° C. and were followed by washing and sequential incubation with rabbit anti-phospho-MBP and anti-rabbit Ig Sulfotag antibody before reading bound Sulfotag on a Mesoscale Discovery. Signal obtained in the wells containing blank samples was subtracted from all other wells and IC50's were determined by fitting a sigmoidal curve to % inhibition of control versus Log10 compound concentration.

L-363 cells = assay: Biological Assay C: antiproliferative activity on L-363 cells (CellTiter-Glo); type: cell-based; settings: Homo sapiens, 72 hr treatment
Description: as §1, §2

[2] = target: T1, Recombinant Human NF-kappaB-Inducing Kinase (NIK/MAP3K14); assay: Biological Assay A2: inhibition of auto-phosphorylation of recombinant human NIK/MAP3K14 (AlphaScreen); type: biochemical; settings: 25 microM ATP, 0.2 nM NIK/MAP3K14, 1 h at 25° C., averaged over all batches, read-out: Alpha-Screen IC50
Description: Inhibition of Auto-Phosphorylation of Recombinant Human NF-kappaB-Inducing Kinase (NIKIMAP3K14) Activity (AlphaScreen®)
NIK/MAP3K14 auto-phosphorylation activity was measured using the AlphaScreen® (ascreen) format (Perkin Elmer). All compounds tested were dissolved in dimethyl sulfoxide (DMSO) and further dilutions were made in assay buffer. Final DMSO concentration was 1% (v/v) in assays. Assay buffer was 50 mM Tris pH 7.5 containing 1 mM EGTA (ethylene glycol tetraacetic acid), 1 mM DTT (dithiothreitol), 0.1 mM Na3VO4, 5 mM MgCl2, 0.01% Tween® 20. Assays were carried out in 384 well Alphaplates (Perkin Elmer). Incubations consisted of compound, 25 microM Adenosine-5′-triphosphate (ATP), and 0.2 nM NIK/MAP3K14. Incubations were initiated by addition of GST-tagged NIK/MAP3K14 enzyme, carried out for 1 h at 25° C. and terminated by addition of stop buffer containing anti-phospho-IKK Ser176/180 antibody. Protein A Acceptor and Glutathione-Donor beads were added before reading using an EnVision® Multilabel Plate Reader (Perkin Elmer). Signal obtained in the wells containing blank samples was subtracted from all other wells and IC50's were determined by fitting a sigmoidal curve to % inhibition of control versus Log10 compound concentration.

JJN-3 cells = assay: Biological Assay C: antiproliferative activity on JJN-3 cells (CellTiter-Glo); type: cell-based; settings: Homo sapiens, 72 hr treatment
Description: as §1, §2

[3] = test system: P-IKKα levels in L363 cells; assay: Biological Assay B: effect of compounds on P-IKKα levels in L363 cells; type: cell-based; settings: Homo sapiens, L-363, BAFF stimulated, 2 hr treatment, averaged over all batches, read-out: IKKα Cellular IC50
Description: Effect of Compounds on P-IKKα Levels in L363 Cells
All compounds tested were dissolved in DMSO and further dilutions were made in culture medium. Final DMSO concentration was 1% (v/v) in cell assays. The human L363 cells (ATCC) were cultured in RPMI 1640 medium supplemented with GlutaMax and 10% fetal calf serum (PAA). Cells were routinely maintained at densities of 0.2×10^6 cells per ml-1×10^6 cells per ml at 37° C. in a humidified 5% CO2 atmosphere. Cells were passaged twice a week splitting back to obtain the low density. Cells were seeded in 96 well plates (Nunc 167008) at 2×10^6 per ml media in a volume of 75 μl per well plus 25 μl 1 μg/ml recombinant human B-cell activating factor (BAFF/BLyS/TNFSF13B). Seeded cells were incubated at 37° C. in a humidified 5% CO2 atmosphere for 24 hr. Drugs and/or solvents were added (20 μl) to a final volume of 120 μl. Following 2 hr treatment plates were removed from the incubator and cell lysis was achieved by the addition of 30 μl 5× lysis buffer followed by shaking on a plate shaker at 4° C. for 10 min. At the end of this incubation lysed cells were centrifuged at 800×g for 20 min at 4° C. and the lysate was assessed for P-IKKα levels by sandwich immuno-assay carried out in anti-rabbit antibody coated Mesoscale plates. Within an experiment, the results for each treatment were the mean of 2 replicate wells. For initial screening purposes, compounds were tested using an 8 point dilution curve (serial 1:3 dilutions). For each experiment, controls (containing MG132 and BAFF but no test drug) and a blank incubation (containing MG132 and BAFF and 10 μM ADS125117, a test concentration known to give full inhibition) were run in parallel. The blank incubation value was subtracted from all control and sample values. To determine the IC50 a sigmoidal curve was fitted to the plot of % inhibition of control P-IKKα levels versus Log10 compound concentration.

T1 sequence (Q99558 whole entry): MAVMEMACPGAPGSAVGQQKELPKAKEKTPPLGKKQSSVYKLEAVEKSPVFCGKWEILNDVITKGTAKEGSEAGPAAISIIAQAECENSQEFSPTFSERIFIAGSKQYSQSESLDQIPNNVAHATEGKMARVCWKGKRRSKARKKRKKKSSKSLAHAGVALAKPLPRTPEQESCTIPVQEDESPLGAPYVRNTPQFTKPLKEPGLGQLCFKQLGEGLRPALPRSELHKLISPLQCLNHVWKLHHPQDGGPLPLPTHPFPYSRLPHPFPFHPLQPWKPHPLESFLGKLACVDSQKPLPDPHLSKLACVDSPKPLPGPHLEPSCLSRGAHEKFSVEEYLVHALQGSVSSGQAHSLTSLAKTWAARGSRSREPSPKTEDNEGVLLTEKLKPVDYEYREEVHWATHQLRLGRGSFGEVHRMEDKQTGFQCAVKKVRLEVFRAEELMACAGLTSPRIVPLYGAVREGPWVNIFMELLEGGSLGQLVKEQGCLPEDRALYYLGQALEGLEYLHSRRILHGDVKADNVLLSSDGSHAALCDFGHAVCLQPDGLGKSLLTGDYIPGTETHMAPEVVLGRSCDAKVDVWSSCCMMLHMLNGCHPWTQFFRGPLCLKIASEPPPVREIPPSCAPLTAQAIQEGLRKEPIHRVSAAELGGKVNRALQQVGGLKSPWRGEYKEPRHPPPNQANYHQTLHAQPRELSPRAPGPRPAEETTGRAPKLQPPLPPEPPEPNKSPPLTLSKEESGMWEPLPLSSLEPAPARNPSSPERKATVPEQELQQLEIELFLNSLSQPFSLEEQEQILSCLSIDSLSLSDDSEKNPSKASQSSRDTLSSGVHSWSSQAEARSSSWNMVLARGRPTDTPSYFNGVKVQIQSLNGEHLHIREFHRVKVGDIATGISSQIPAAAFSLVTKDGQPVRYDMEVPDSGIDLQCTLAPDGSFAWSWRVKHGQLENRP

Row | SMILES | EC50 (LP-1 cells) [nM] | IC50 [1] [nM] | EC50 (L-363 cells) [nM] | IC50 [2] [nM] | EC50 (JJN-3 cells) [nM] | IC50 [3] [nM]
1 | CN1CCC(c2cn(-c3ccnc(N)n3)c3cc(C#CC(C)(C)O)ncc23)CC1 [Compound 23] | 1920 | 33 | 92 | 35 | 116 | 87
2 | CC(C)(O)C#Cc1cc2c(cn1)c(CCCO)cn2-c1nc(N)ncc1F [Compound 29] | 3480 | 19 | 277 | 24 | 298 | 32
3 | Nc1ncc(Cl)c(-n2ccc3cnc(C#CC4(O)CC4)cc32)n1 [Compound 8] | 2330 | 12 | 1560 | 24 | 1590 | 104
4 | CC(C)(O)C#Cc1cc2c(cn1)c(CCCO)cn2-c1ccnc(N)n1 [Compound 28] | 4440 | 3.9 | 215 | 5.5 | 162 | 28
5 | CC(C)(O)C#Cc1cc2c(ccn2-c2nc(N)ncc2F)cn1 [Compound 12] | 282 | 77 | 133 | 13 | 132 | 25
6 | CC(O)(C#Cc1cc2c(ccn2-c2ccnc(N)n2)cn1)c1nccs1 (stereo not drawn) [Compound 5] | 3310 | 2.4 | 2920 | 10 | 237 | 18
7 | Cc1cnc(N)nc1-n1ccc2cnc(C#CC(C)(C)O)cc21 [Compound 11] | 5840 | 115 | 3770 | 232 | 2720 | 330
8 | CCc1cn(-c2ccnc(N)n2)c2cc(C#CC(C)(C)O)ncc12 [Compound 21] | 70 | 11 | 44 | 15 | 41 | 9.5
9 | CC(C)(O)C#Cc1cc2c(ccn2-c2nc(N)ncc2Cl)cn1 [Compound 7] | 1900 | 3.8 | 977 | 16 | 1050 | 163
10 | CC(C)(O)C#Cc1cc2c(cn1)c(CCO)cn2-c1ccnc(N)n1 [Compound 26] | 6940 | 3.8 | 823 | 11 | 182 | 41
11 | CN1CCC(c2cn(-c3ccnc(N)n3)c3cc(C#CC4(O)CCCC4)ncc23)CC1 [Compound 24] | 4240 | 40 | 512 | 37 | 779 | 183
12 | COCCc1cn(-c2ccnc(N)n2)c2cc(C#CC(C)(C)O)ncc12 [Compound 27] | 448 | 31 | 194 | 33 | 145 | 48
13 | Nc1nccc(-n2ccc3cnc(C#CC4(O)CC4)cc32)n1 [Compound 4] | 122 | 3.9 | 62 | 5.6 | 56 | 7.3
14 | CC(CO)c1cn(-c2ccnc(N)n2)c2cc(C#CC(C)(C)O)ncc12 (stereo not drawn) [Compound 16] | 6120 | 20 | 354 | 6.7 | 157 | 56
15 | CC(C)(O)C#Cc1cc2c(cn1)c(CCC(C)(C)O)cn2-c1ccnc(N)n1 [Compound 31] | 7070 | 13 | 972 | 14 | 358 | 80
16 | CNc1nccc(-n2ccc3cnc(C#CC(C)(C)O)cc32)n1 [Compound 6] | 929 | 55 | 774 | 80 | 744 | 204
17 | CC(C)(O)C#Cc1cc2c(cn1)c(/C=C/C#N)cn2-c1ccnc(N)n1 [Compound 35] | 2060 | 89 | 959 | 49 | 420 | 161

Source: US10005773B2, “1-(4-pyrimidinyl)-1H-pyrrolo[3,2-c]pyridine derivatives as NIK inhibitors” (Janssen Pharmaceutica NV, priority 2013, dated 2018)
